Measurements from patent publication US20050277625A1, “Estriol and estetrol prodrugs” (priority 2004, published 2005).

Columns and labels:
[1] = biological target: Human Carboanhydrase I (Homo sapiens, UniProt P00915); assay: Inhibition of carboanhydrase I (CO2 hydration); format: biochemical; conditions: read-out: CAI IC50
Description: Carboanhydrases catalyze the CO2 hydration.
Test preparation: A constant CO2 stream is directed by a buffer that was mixed with carboanhydrase I. The time that is required to reduce the pH within defined limits is a measuring parameter. This parameter reflects the formation of H2CO3 in the medium. IC50 inhibiting values are determined by test substances being pipetted into the test preparation.

[2] = system: erythrocytes; assay: Binding to erythrocytes: displacement of 14C-estradiol sulfamate; set-up: species or system Human; conditions: for RBA to Erythrocytes: human blood, relative to estradiol-3-sulfamate = 100; for bonds to erythrocytes (in words): m-substituted compounds
Description: The SO2—NH2 group of the substances according to the invention can result in a concentration in erythrocytes by binding to carboanhydrases. The displacement of estradiol-3-sulfamate from the erythrocyte bond by test substances is measured.
Test preparation: Human blood is mixed with a mixture that consists of ^14C-labeled and unlabeled estradiol sulfamate. The erythrocytes are saturated at the selected working point, and the distribution in plasma/erythrocytes is 40:60. A second blood sample is mixed with a mixture that consists of ^14C-labeled estradiol sulfamate and unlabeled test substance. The relative binding affinity is calculated from the proportion of ^14C-labeled estradiol sulfamate in plasma: higher proportion=strong displacement of ^14C-estradiol sulfamate from the erythrocytes by the test substance=high binding affinity.

[3] = system: angiotensinogen, total cholesterol and HDL cholesterol in serum; assay: Hepatic effects in ovariectomized rats (estrogen-modulated factors of hepatic secretion in serum); conditions: for Angiotensin 1 ED50 (dose which produces an increase by 50% vs. OVX control) / HDL Cholesterol ED50 (dose which produces a drop by 50% vs. OVX control) / Total Cholesterol ED50 (dose which produces a drop by 50% vs. OVX control): oral, days 1-3, serum
Description: (§1) Table 1 illustrates the estrogenic activity in the case of oral administration and liver toxicity (hepatic effects) based on data of selected compounds in in-vivo tests with rats.
(§2) Adult Wistar rats are ovariectomized and are brought into the test after a 14-day waiting period. The animals are then treated for over three days (days 1-3) and then sacrificed (day 4). Then, the organ weights are determined and estrogen-modulated factors of hepatic secretion in serum are determined, which in the rat are the increase of angiotensinogen and the drop in total cholesterol and HDL cholesterol.

[4] = system: uterus weight; assay: Estrogenic activity in ovariectomized rats, oral administration (uterus weight); format: in vivo, Wistar rats; conditions: for Uterus Weight UVD (Uterus Doubling Dose vs. OVX): treatment days 1-3, sacrifice day 4
Description: as §1, §2

[5] = system: uterus and vagina weight; assay: Interaction of estrogens with progesterone in uterus and vagina of ovariectomized guinea pigs; format: in vivo; conditions: OVX guinea pigs, 7 days s.c., with 3.0 mg progesterone per animal per day
From the text: Adult guinea pigs were ovariectomized and treated for 2 weeks after this operation over 7 days with estradiol or estriol over a large dose range. […] The effects of this treatment on the genital organs was raised on the 8th test day.

[6] = female, Wistar, rat, in vivo, 3 days
[7] = rats, oral, compared with compound 10 or compound 1

Chain of Human Carboanhydrase I (P00915 whole entry): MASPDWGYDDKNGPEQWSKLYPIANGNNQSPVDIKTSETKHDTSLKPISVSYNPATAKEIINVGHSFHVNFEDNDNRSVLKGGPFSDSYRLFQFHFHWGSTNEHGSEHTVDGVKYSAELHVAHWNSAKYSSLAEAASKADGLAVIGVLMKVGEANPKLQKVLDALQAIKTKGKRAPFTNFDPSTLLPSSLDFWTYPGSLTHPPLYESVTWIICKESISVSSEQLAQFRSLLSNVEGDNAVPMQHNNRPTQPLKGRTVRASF

Row | SMILES | IC50 [1] | RBA to Erythrocytes [2] | Angiotensin 1 ED50 (dose which produces an increase by 50% vs. OVX control) ([3]; OVX rats) | HDL Cholesterol ED50 (dose which produces a drop by 50% vs. OVX control) ([3]; OVX rats) | Total Cholesterol ED50 (dose which produces a drop by 50% vs. OVX control) ([3]; OVX rats) | rel. hep. Akt. (relative hepatic activity vs. uterotropic activity), Angiotensin 1 [3, 6] | rel. hep. Akt. (relative hepatic activity vs. uterotropic activity), HDL Cholesterol [3, 6] | rel. hep. Akt. (relative hepatic activity vs. uterotropic activity), Total Cholesterol [3, 6] | Uterus Weight UVD (Uterus Doubling Dose vs. OVX) ([4]; OVX rats, oral) | bonds to erythrocytes (in words) [2] | estrogenic activity in the case of oral administration [4, 7] | oral bioavailability [4, 7] | rel. hep. Akt. (relative hepatic activity vs. uterotropic activity), HDL Cholesterol ([3]; OVX rats, HDL cholesterol ED50 relative to UVD) | rel. hep. Akt. (relative hepatic activity vs. uterotropic activity), Angiotensin 1 ([3]; OVX rats, angiotensin 1 ED50 relative to UVD) | rel. hep. Akt. (relative hepatic activity vs. uterotropic activity), Total Cholesterol ([3]; OVX rats, total cholesterol ED50 relative to UVD) | increase of the uterus weight (doubling) ([4]; OVX rats, estriol even at very high dosages) | uterotropic actions in combination with progesterone ([5]; uterus) | increase in weight of the vagina in combination with progesterone ([5]; vagina)
1 | C[C@]12CC[C@@H]3c4ccc(OS(N)(=O)=O)cc4CC[C@H]3[C@@H]1CC[C@@H]2O [Estradiol-3-sulfamate, reference compound] | 157 ± 10.6 nM | 100 |  |  |  |  |  |  |  |  |  |  |  |  |  |  |  | 
2 | C[C@]12CC[C@@H]3c4ccc(O)cc4CC[C@H]3[C@@H]1C[C@@H](O)[C@@H]2OC(=O)c1ccc(S(N)(=O)=O)cc1 [Compound 1, 3,16α-Dihydroxyestra-1,3,5(10)-trien-17β-yl 4′-sulfamoylbenzoate] | 200 nM |  | 17.4 μg/T/T | 45.9 μg/T/T | 39.9 μg/T/T | 0.12 | 0.28 | 0.25 | 162.6 μg/T/T |  |  |  |  |  |  |  |  | 
3 | C[C@]12CC[C@@H]3c4ccc(O)cc4CC[C@H]3[C@@H]1C[C@@H](O)[C@@H]2OC(=O)c1cccc(S(N)(=O)=O)c1 [Compound 7, 3,16α-Dihydroxyestra-1,3,5(10)-trien-17β-yl 3′-sulfamoylbenzoate] | 600 nM | 0.5 | 8.9 μg/T/T | 6.0 μg/T/T | 4.8 μg/T/T | 0.06 | 0.04 | 0.03 | 137.5 μg/T/T | only very weak bonds were detected | higher estrogenic activity | higher |  |  |  |  |  | 
4 | C[C@]12CC[C@@H]3c4ccc(O)cc4CC[C@H]3[C@@H]1C[C@@H](OC(=O)c1ccc(S(N)(=O)=O)cc1)[C@@H]2O [Compound 4, 3,17β-Dihydroxyestra-1,3,5(10)-trien-16α-yl 4′-sulfamoylbenzoate] |  | 2.6 |  |  |  |  |  |  |  |  |  |  |  |  |  |  |  | 
5 | C[C@]12CC[C@@H]3c4ccc(O)cc4CC[C@H]3[C@@H]1C[C@@H](O)[C@@H]2O [Estriol] |  |  | 7.6 μg/T/T | 110.7 μg/T/T | 79 μg/T/T |  |  |  | >1000 μg/T/T |  |  |  | <0.1 | <0.008 | <0.08 | did not bring about a doubling of the uterus weight | clearly enhanced | not enhanced or is not enhanced to the same extent
6 | C[C@]12CC[C@@H]3c4ccc(O)cc4CC[C@H]3[C@@H]1C[C@@H](OC(=O)c1cccc(S(N)(=O)=O)c1)[C@@H]2O [Compound 10, 3,17β-Dihydroxyestra-1,3,5(10)-trien-16α-yl 3′-sulfamoylbenzoate] | 450 nM | 0.4 | 5.7 μg/T/T | 18.6 μg/T/T | 10.7 μg/T/T | 0.015 | 0.49 | 0.028 | 378.2 μg/T/T | only very weak bonds were detected |  |  |  |  |  |  |  | 
